# From US20160280651A1, “COMPOUNDS THAT INDUCE ABA RESPONSES” (THE REGENTS OF THE UNIVERSITY OF CALIFORNIA, priority 2013, published 2016)
# “Also recorded” adds a separate entry of the source.
# What was measured:
# Format in all cases: in vivo
# Arabidopsis seeds = test: Arabidopsis germination inhibition, wild type and mutants, Example 2
# Description: FIG. 5A-FIG. 5D. Novel ABA agonists inhibit germination of Arabidopsis seeds more strongly than pyrabactin. (A) and (B) Comparison of seed germination inhibition by ABA agonists. (C) and (D) the effects of ABA and LC66C6 (also called quinabactin) on Arabidopsis ABA signaling- and biosynthesis-deficient mutants on germination (C) and seedling establishment (D). Seeds were sown on ½×MS agar plate containing chemicals, and were stored at 4° C. for 4 days, then transferred at 22±2° C. Photographs (A and C) and germination (B) or green cotyledon (D) scores were assessed after a 4-day incubation under continuous illumination.
# As a third screening approach, the Life Chemicals library was also screened for Arabidopsis germination inhibitors in solidified agar medium containing 0.5×MS salts, 0.5% sucrose and 25 μM test compound. Hits from the germination assay were subsequently tested in yeast two hybrid assays. Hit compounds were restocked from their original vendors and used in secondary screens and compound characterization. […]
# For Arabidopsis germination and hypocotyl growth inhibition analysis, seeds after-ripened about 4 weeks were surface-sterilized with a solution containing 5% NaClO and 0.05% Tween-20 for 10 minutes, and rinsed with water four times. […] Germination was determined after a 4-day incubation, whereas hypocotyl growth was photographed after 6-day incubation.
# Arabidopsis plants [1] = test: Transpirational water loss of detached leaves; conditions: 25 μM spray
# Description: Physiological assays were performed on Arabidopsis plants grown at 22±2° C. and relative humidity (RH) 45±10% under a 16/8-h light/dark cycle. For transpirational water loss analyses in Arabidopsis, plants were pre-treated by aerosol spray of 4 ml solution containing 25 μM compound and 0.05% Tween-20. 12 4-week old plants were sprayed per compound or control analyzed. After overnight pre-treatment with compounds, the aerial portions were detached from roots, and their fresh weight measured at 20 min intervals over a 2 hour time period. To measure stomatal aperture, plants were pre-treated with compounds as described above, covered with plastic lids to maintain high RH and after overnight pre-treatment leaf epidermal impressions were obtained using Suzuki's Universal Micro-Printing (SUMP) method using SUMP impression solution with SUMP B plates (SUMP Laboratory). The leaf impressions were analyzed by light microscopy and stomatal apertures were determined from the pore widths using ImageJ 1.43v software (National Institutes of Health, USA). […] Pots were covered in Parafilm to so that the water loss measured was transpiration mediated. Soil water content % was determined by measuring pot weight and computed by removing dry soil weight from total weight.
# Arabidopsis plants [2] = test: Arabidopsis drought stress assay; conditions: 25 μM, aerosol every 3 days
# Description: FIG. 8A-FIG. 8B. Quinabactin confers drought stress tolerance to wild-type plants. (A) Effect of quinabactin on Arabidopsis drought tolerance. Two-week-old plants were subjected to drought stress by withholding water and were photographed after 12 days. During the drought period, plants were treated every 3 days with 25 μM compound. Plants were re-hydrated after 2 weeks drought treatment; the number of surviving plants (out of total number tested) for each treatment is shown next to each image. (B) Effects of quinabactin on soybean. Two-week-old plants were subjected to drought stress by withholding water and photographed after 8 days drought treatment. […]
# Physiological assays were performed on Arabidopsis plants grown at 22±2° C. and relative humidity (RH) 45±10% under a 16/8-h light/dark cycle. […] 12 4-week old plants were sprayed per compound or control analyzed. After overnight pre-treatment with compounds, the aerial portions were detached from roots, and their fresh weight measured at 20 min intervals over a 2 hour time period. […] The leaf impressions were analyzed by light microscopy and stomatal apertures were determined from the pore widths using ImageJ 1.43v software (National Institutes of Health, USA). […] Pots were covered in Parafilm to so that the water loss measured was transpiration mediated. […]
# HVA1 and HvDRF1 = test: Quantitative RT-PCR of ABA-responsive genes in barley
# From the text: FIG. 13A-FIG. 13E. LC66C6 modulates ABA responses in diverse species. Germination inhibition (A) and transpirational water loss in detached leaves 2-hours after detachment (B) in response to compounds shown. The expression of ABA-responsive marker genes in Soybean (C), Barley (D) and Maize (E) after application of chemicals. D, P, L and A indicate DMSO, pyrabactin, LC66C6 and (+)-ABA, respectively.
# Total RNA was isolated using Plant RNA purification reagent (Invitrogen, USA) according to the manufacturer's instructions. cDNA was synthesized from 1 μg of total RNA using the QantiTec reverse transcription kit (Qiagen, USA). Real-time PCR using Maxima® SYBR Green/Fluorescein qPCR Master Mix (Fermentas) was performed with the iQ5 real-time PCR detection system (Bio-Rad, Hercules, Calif.). The relative amounts of target mRNAs were determined using the relative standard curve method and were normalized by relative amount of internal control mRNA. Biological triplicate experiments were performed.
compound,measurement,setting,value
CCCN1C(=O)CCc2cc(NS(=O)(=O)Cc3ccc(C)cc3)ccc21 [LC66C6],Inhibition of germination of wild-type seeds,Arabidopsis seeds,"nearly as effective, on a per mole basis, at inhibiting germination as (+)-ABA; also recorded: one of the most effective agonists, after (+)-ABA, at inhibiting germination of wild-type seeds"
same,Transpirational water loss in detached leaves,Arabidopsis plants [1]; abi1-1 mutant,did not reduce transpirational water loss
same,Transpirational water loss in detached leaves,Arabidopsis plants [1]; wild-type and aba2 mutant,reduced the amount of transpirational water loss
same,Drought stress tolerance,Arabidopsis plants [2],confers drought stress tolerance in Arabidopsis plants similar to that conferred by treatment with (+)-ABA
same,Expression of ABA-responsive genes HVA1 and HvDRF1,HVA1 and HvDRF1,moderately induces
